Measured values from patent US20250268903A1, “RXFP1 AGONISTS” (BRISTOL-MYERS SQUIBB COMPANY, priority 2021, published 2025).

Biological target: T1, human RXFP1 (Homo sapiens, UniProt Q9HBX9)
T1 construct: expressed in transfected cells
T1 sequence (Q9HBX9 1-757): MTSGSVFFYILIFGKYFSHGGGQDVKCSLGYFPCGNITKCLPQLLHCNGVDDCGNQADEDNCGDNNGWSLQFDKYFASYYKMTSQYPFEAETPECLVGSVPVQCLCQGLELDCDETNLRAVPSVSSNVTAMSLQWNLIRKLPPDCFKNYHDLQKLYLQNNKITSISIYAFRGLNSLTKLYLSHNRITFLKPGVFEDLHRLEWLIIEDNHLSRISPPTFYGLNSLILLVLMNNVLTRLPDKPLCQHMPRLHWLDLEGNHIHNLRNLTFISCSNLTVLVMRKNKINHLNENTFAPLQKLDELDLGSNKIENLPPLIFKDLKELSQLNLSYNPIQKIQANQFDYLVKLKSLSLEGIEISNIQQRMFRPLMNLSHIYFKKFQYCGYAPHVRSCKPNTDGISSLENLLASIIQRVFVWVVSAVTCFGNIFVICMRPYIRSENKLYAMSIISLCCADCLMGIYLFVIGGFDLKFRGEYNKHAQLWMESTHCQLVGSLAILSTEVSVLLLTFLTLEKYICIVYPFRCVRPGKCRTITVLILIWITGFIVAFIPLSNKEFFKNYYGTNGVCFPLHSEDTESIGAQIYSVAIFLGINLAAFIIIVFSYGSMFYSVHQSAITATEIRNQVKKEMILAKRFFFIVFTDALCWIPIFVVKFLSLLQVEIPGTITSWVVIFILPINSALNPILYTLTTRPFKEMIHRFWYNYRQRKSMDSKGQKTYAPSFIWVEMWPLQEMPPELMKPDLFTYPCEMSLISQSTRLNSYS
Assay: hRXFP1 HEK293 cAMP assay (HTRF)
Format: cell-based
Details: HEK293 cells stably expressing human RXFP1, 30 min at room temperature
Procedure, shortened: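 hRXFP1-HEK293 stable line; HBSS + Ca/Mg, 20 mM HEPES, 0.05% BSA, 0.5 mM IBMX; cpd 0.010 nM–50 μM, 2% DMSO; 30 min RT; lysis, HTRF cAMP detection; 4-PL fit.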

EC50 [nM]	Compound
206	COc1ccc(COC2=NOC3COCC23)cc1C(=O)N[C@H]1[C@@H](C(=O)Nc2ccc(F)c(C(F)(F)F)c2)[C@H]2CC[C@@H]1/C2=C\C1CC1 (stereo partly drawn) [Example 300, (1R,2S,3R,4R,7Z)-3-[5-({3aH,4H,6H,6aH-furo[3,4-d][1,2]oxazol-3-yloxy}methyl)-2-methoxybenzamido]-7-(cyclopropylmethylidene)-N-[4-fluoro-3-(trifluoromethyl)phenyl]bicyclo[2.2.1] heptane-2-carboxamide]
21.6	COc1ccc(COC2=NOC3CC(O)CC23)cc1C(=O)N[C@H]1[C@@H](C(=O)Nc2ccc(F)c(C(F)(F)F)c2)[C@H]2CC[C@@H]1/C2=C\C1CC1 (stereo partly drawn) [Example 301, (1R,2S,3R,4R,7Z)-7-(cyclopropylmethylidene)-N-[4-fluoro-3-(trifluoromethyl)phenyl]-3-{5-[({5-hydroxy-3aH,4H,5H,6H,6aH cyclopenta[d][1,2]oxazol-3-yl}oxy)methyl]-2-methoxybenzamido} bicyclo[2.2.1] heptane-2-carboxamide]
16.3	COc1ccc(/C=C/C(=O)N(C)CCO)cc1C(=O)N[C@H]1[C@@H](C(=O)Nc2ccc(F)c(C(F)(F)F)c2)[C@H]2CC[C@@H]1/C2=C\C1CC1 [Example 302, (1R,2S,3R,4R,7Z)-7-(cyclopropyl-methylidene)-N-[4-fluoro-3-(trifluoromethyl)phenyl]-3-{5-[(1E)-2-[(2-hydroxyethyl) (methyl)carbamoyl]eth-1-en-1-yl]-2-methoxybenzamido} bicyclo[2.2.1]heptane-2-carboxamide]
77.9	COc1ccc(/C=C/C(=O)N2CCCC2)cc1C(=O)N[C@H]1[C@@H](C(=O)Nc2ccc(F)c(C(F)(F)F)c2)[C@H]2CC[C@@H]1/C2=C\C(F)(F)F [Example 303, (1R,2S,3R,4R,7Z)-N-[4-fluoro-3-(trifluoromethyl)phenyl]-3-{2-methoxy-5-[(1E)-3-oxo-3-(pyrrolidin-1-yl)prop-1-en-1-yl]benzamido}-7-(2,2,2-trifluoroethylidene) bicyclo[2.2.1] heptane-2-carboxamide]
597	COC(=O)/C=C\c1ccc(OC)c(C(=O)N[C@H]2[C@@H](C(=O)Nc3ccc(F)c(C(F)(F)F)c3)[C@H]3CC[C@@H]2/C3=C\C(F)(F)F)c1 [Example 304, methyl (2Z)-3-(3-{[(1R,2R,3S,4R,7Z)-3-{[4-fluoro-3-(trifluoromethyl)phenyl]carbamoyl}-7-(2,2,2-trifluoroethylidene)bicyclo[2.2.1]heptan-2-yl]carbamoyl}-4-methoxyphenyl) prop-2-enoate]
744	CCOC(=O)/C(C)=C/c1ccc(OC)c(C(=O)N[C@H]2[C@@H](C(=O)Nc3ccc(F)c(C(F)(F)F)c3)[C@H]3CC[C@@H]2/C3=C\C(F)(F)F)c1 [Example 305, ethyl (2E)-3-(3-{[(1R,2R,3S,4R,7Z)-3-{[4-fluoro-3-(trifluoromethyl)phenyl]carbamoyl}-7-(2,2,2-trifluoroethylidene)bicyclo[2.2.1]heptan-2-yl]carbamoyl}-4-methoxyphenyl)-2-methylprop-2-enoate]
5.26	COc1ccc(/C=C/C(=O)N2CCOCC2)cc1C(=O)N[C@H]1[C@@H](C(=O)Nc2ccc(F)c(C(F)(F)F)c2)[C@H]2CC[C@@H]1/C2=C\C1CC1 [Example 306, (1R,2S,3R,4R,7Z)-7-(cyclopropyl-methylidene)-N-[4-fluoro-3-(trifluoromethyl)phenyl]-3-{2-methoxy-5-[(1E)-3-(morpholin-4-yl)-3-oxoprop-1-en-1-yl]benzamido} bicyclo[2.2.1] heptane-2-carboxamide]
18.5	COc1ccc(/C=C/C(=O)N2CCO[C@@H](CO)C2)cc1C(=O)N[C@H]1[C@@H](C(=O)Nc2ccc(F)c(C(F)(F)F)c2)[C@H]2CC[C@@H]1/C2=C\C1CC1 [Example 307, (1R,2S,3R,4R,7Z)-7-(cyclopropyl-methylidene)-N-[4-fluoro-3-(trifluoromethyl)phenyl]-3-{5-[(1E)-3-[(2R)-2-(hydroxymethyl)morpholin-4-yl]-3-oxoprop-1-en-1-yl]-2-methoxybenzamido} bicyclo[2.2.1]heptane-2-carboxamide]
